Laboratory results as given in US5449752A, “Polypeptides with affinity to lipopolysaccharides and their uses” (Seikagaku Kogyo K.K., priority 1991, dated 1995).
In brackets after ≈: the same amount, converted by molar mass. Positions of bridges follow the written chain, without caps; N, C: chain ends. Residues, ends and D or L forms follow the SMILES beside them.

Experiments:
HIV = assay: Antiviral activity against HIV in HIV-infected MT-4 cells (MTT method); format: cell-based, human immunodeficiency virus; conditions: for EC50 (concentration at which cell death due to HIV infection is 50% inhibited): HIV-infected MT-4 cells, MOI 0.001, 37° C., 5 days, MTT method; for SI (CC50 /EC50): rough ratio of CC50 to EC50, MT-4 cells; for selectivity in killing HIV infected cells (in words): MT-4 cells, Table III; for selectivity index higher than for any of the known high endotoxin affinity compounds: compared with Tachyplesins and Polyphemusins of Table III
Procedure: The antiviral activity-against HIV of the polypeptide (1) synthesized in Example 1 as well as polypeptides (2), (3), (4), (7), (12), (13), (14), (20), (21) and (26) was tested and evaluated according to the following method.
(§1) HIV-infected MT-4 cells (2.5×10^4 cells/well, multiplicity of infection (MOI): 0.001) immediately after infection were added together with the test substance with various changes of the concentration to a 96-well microtitre plate. After incubation at 37° C. for 5 days in a CO2 incubator, the number of survivor cells was measured by the MTT method [Pauwels et al.; J. Virol. Methods, 20, 309-321 (1988)]. The antiviral activity is expressed as a concentration at which cell death due to HIV infection is 50% inhibited (EC50 : 50% effective concentration). On the other hand, in order to know the cytotoxicity of the test substance on the MT-4 cells, virus-noninfected cells are incubated, likewise as above, together with the test compound with various changes of the concentration. The cytotoxicity is expressed as 50% cytotoxic concentration […] due to the test substance. Further, the rough ratio of CC50 to EC50 (CC50 /EC50) is expressed as an effective ratio (SI=selectivity index).

MT-4 cells = assay: Cytotoxicity on virus-noninfected MT-4 cells (MTT method); format: cell-based; conditions: 37° C., 5 days
Procedure: as §1

Row | SMILES | EC50 (concentration at which cell death due to HIV infection is 50% inhibited) (HIV) | CC50 (50% cytotoxic concentration) (MT-4 cells) | SI (CC50 /EC50) (HIV) | selectivity in killing HIV infected cells (in words) (HIV) | selectivity index higher than for any of the known high endotoxin affinity compounds (HIV)
1 | Cc1cn([C@H]2C[C@H](N=[N+]=[N-])[C@@H](CO)O2)c(=O)[nH]c1=O [AZT, reference compound] | 4.8 µg/mL (≈ 18 µM) | 6.8 µg/mL (≈ 25.4 µM) | – | – | –
2 | CC(C)[C@@H]1NC(=O)[C@H](CCCNC(=N)N)NC(=O)[C@H](Cc2ccccc2)NC(=O)[C@@H](NC(=O)[C@H](Cc2c[nH]c3ccccc23)NC(=O)[C@H](CCCNC(=N)N)NC(=O)[C@@H](N)CCCNC(=N)N)CSSC[C@@H](C(=O)N[C@@H](CCCNC(=N)N)C(N)=O)NC(=O)[C@H](CCCCN)NC(=O)[C@H](CCCNC(=N)N)NC(=O)[C@H](Cc2ccc(O)cc2)NC(=O)[C@@H]2CSSC[C@H](NC1=O)C(=O)N[C@@H](Cc1ccc(O)cc1)C(=O)N[C@@H](CCCCN)C(=O)NCC(=O)N[C@@H](Cc1ccccc1)C(=O)N2 [Polyphemusin II, ArgArgTrpCysPheArgValCysTyrLysGlyPheCysTyrArgLysCysArg NH2, reference compound] (H-RRWCFRVCYKGFCYRKCR-NH2; disulfide 4-17, 8-13) | 1.9 µg/mL (≈ 0.783 µM) | 33 µg/mL (≈ 13.6 µM) | 17 | – | –
3 | CC[C@H](C)[C@@H]1NC(=O)CNC(=O)[C@H](CCCNC(=N)N)NC(=O)[C@H](Cc2ccc(O)cc2)NC(=O)[C@@H]2CSSC[C@H](NC1=O)C(=O)N[C@@H](Cc1ccc(O)cc1)C(=O)N[C@@H](CCCNC(=N)N)C(=O)N[C@@H](CCCCN)C(=O)N[C@H](C(=O)N[C@@H](CCCNC(=N)N)C(N)=O)CSSC[C@H](NC(=O)[C@H](Cc1c[nH]c3ccccc13)NC(=O)[C@@H](N)CCCNC(=N)N)C(=O)N[C@@H](Cc1ccccc1)C(=O)N[C@@H](CCCNC(=N)N)C(=O)N[C@@H](C(C)C)C(=O)N2 [Tachyplesin II, ArgTrpCysPheArgValCysTyrArgGlyIleCysTyrArgLysCysArg NH2, reference compound] (H-RWCFRVCYRGICYRKCR-NH2; disulfide 3-16, 7-12) | – | 36 µg/mL (≈ 15.9 µM) | 6 | – | –
4 | N=C(N)NCCC[C@H](NC(=O)[C@@H]1CSSC[C@H](NC(=O)[C@H](Cc2c[nH]c3ccccc23)NC(=O)[C@H](CCCNC(=N)N)NC(=O)[C@@H](N)CCCNC(=N)N)C(=O)N[C@@H](Cc2ccc(O)cc2)C(=O)N[C@@H](CCCNC(=N)N)C(=O)N[C@@H](CCCCN)C(=O)N[C@H]2CSSC[C@H](NC(=O)[C@H](Cc3ccc(O)cc3)NC(=O)CNC(=O)[C@H](CCCCN)NC(=O)[C@H](Cc3ccc(O)cc3)NC2=O)C(=O)N[C@@H](Cc2ccc(O)cc2)C(=O)N[C@@H](CCCNC(=N)N)C(=O)N[C@@H](CCCCN)C(=O)N1)C(N)=O [polypeptide (1)] (H-RRWCYRKCYKGYCYRKCR-NH2; disulfide 4-17, 8-13) | – | 54 µg/mL (≈ 21.7 µM) | 10800 | – | –
5 | N=C(N)NCCC[C@H](NC(=O)[C@H](CCCNC(=N)N)NC(=O)[C@@H]1CSSC[C@H](NC(=O)[C@H](Cc2c[nH]c3ccccc23)NC(=O)[C@H](CCCNC(=N)N)NC(=O)[C@@H](N)CCCNC(=N)N)C(=O)N[C@@H](Cc2ccc(O)cc2)C(=O)N[C@@H](CCCNC(=N)N)C(=O)N[C@@H](CCCCN)C(=O)N[C@H]2CSSC[C@H](NC(=O)[C@H](Cc3ccc(O)cc3)NC(=O)CNC(=O)[C@H](CCCCN)NC(=O)[C@H](Cc3ccc(O)cc3)NC2=O)C(=O)N[C@@H](Cc2ccc(O)cc2)C(=O)N[C@@H](CCCNC(=N)N)C(=O)N[C@@H](CCCCN)C(=O)N1)C(N)=O [polypeptide (2), ArgArgTrpCysTyrArgLysCysTyrLysGlyTyrCysTyrArgLysCysArgArgNH2] (H-RRWCYRKCYKGYCYRKCRR-NH2; disulfide 4-17, 8-13; N-terminus assumed) | 1.26 µg/mL (≈ 0.477 µM) | 200 µg/mL (≈ 75.7 µM) | – | – | –
6 | N=C(N)NCCC[C@H](NC(=O)[C@@H]1CSSC[C@H](NC(=O)[C@H](Cc2c[nH]c3ccccc23)NC(=O)[C@@H](N)CCCNC(=N)N)C(=O)N[C@@H](Cc2ccc(O)cc2)C(=O)N[C@@H](CCCNC(=N)N)C(=O)N[C@@H](CCCCN)C(=O)N[C@H]2CSSC[C@H](NC(=O)[C@H](Cc3ccccc3)NC(=O)CNC(=O)[C@H](CCCCN)NC(=O)[C@H](Cc3ccc(O)cc3)NC2=O)C(=O)N[C@@H](Cc2ccc(O)cc2)C(=O)N[C@@H](CCCNC(=N)N)C(=O)N[C@@H](CCCCN)C(=O)N1)C(N)=O [polypeptide (3), ArgTrpCysTyrArgLysCysTyrLysGlyPheCysTyrArgLysCysArgNH2] (H-RWCYRKCYKGFCYRKCR-NH2; disulfide 3-16, 7-12; N-terminus assumed) | 0.07 µg/mL (≈ 0.0302 µM) | 50 µg/mL (≈ 21.6 µM) | – | particularly selective | at least 7 fold
7 | N=C(N)NCCC[C@H](NC(=O)[C@H](CCCNC(=N)N)NC(=O)[C@@H]1CSSC[C@H](NC(=O)[C@H](Cc2c[nH]c3ccccc23)NC(=O)[C@@H](N)CCCNC(=N)N)C(=O)N[C@@H](Cc2ccc(O)cc2)C(=O)N[C@@H](CCCNC(=N)N)C(=O)N[C@@H](CCCCN)C(=O)N[C@H]2CSSC[C@H](NC(=O)[C@H](Cc3ccccc3)NC(=O)CNC(=O)[C@H](CCCCN)NC(=O)[C@H](Cc3ccc(O)cc3)NC2=O)C(=O)N[C@@H](Cc2ccc(O)cc2)C(=O)N[C@@H](CCCNC(=N)N)C(=O)N[C@@H](CCCCN)C(=O)N1)C(N)=O [polypeptide (4), ArgTrpCysTyrArgLysCysTyrLysGlyPheCysTyrArgLysCysArgArgNH2] (H-RWCYRKCYKGFCYRKCRR-NH2; disulfide 3-16, 7-12; N-terminus assumed) | 2.75 µg/mL (≈ 1.11 µM) | 338 µg/mL (≈ 137 µM) | – | – | –
8 | N=C(N)NCCC[C@H](NC(=O)[C@@H]1CSSC[C@H](NC(=O)[C@H](Cc2c[nH]c3ccccc23)NC(=O)[C@H](CCCNC(=N)N)NC(=O)[C@@H](N)CCCNC(=N)N)C(=O)N[C@@H](Cc2ccc(O)cc2)C(=O)N[C@@H](CCCCN)C(=O)N[C@@H](CCCNC(=N)N)C(=O)N[C@H]2CSSC[C@H](NC(=O)[C@H](Cc3ccc(O)cc3)NC(=O)CNC(=O)[C@H](CCCCN)NC(=O)[C@H](Cc3ccc(O)cc3)NC2=O)C(=O)N[C@@H](Cc2ccc(O)cc2)C(=O)N[C@@H](CCCCN)C(=O)N[C@@H](CCCNC(=N)N)C(=O)N1)C(N)=O [polypeptide (12), ArgArgTrpCysTyrLysArgCysTyrLysGlyTyrCysTyrLysArgCysArgNH2] (H-RRWCYKRCYKGYCYKRCR-NH2; disulfide 4-17, 8-13; N-terminus assumed) | 0.49 µg/mL (≈ 0.197 µM) | 245 µg/mL (≈ 98.5 µM) | – | particularly selective | at least 7 fold
9 | N=C(N)NCCC[C@H](NC(=O)[C@@H]1CSSC[C@H](NC(=O)[C@H](Cc2c[nH]c3ccccc23)NC(=O)[C@H](CCCNC(=N)N)NC(=O)[C@@H](N)CCCNC(=N)N)C(=O)N[C@@H](Cc2ccc(O)cc2)C(=O)N[C@@H](CCCNC(=N)N)C(=O)N[C@@H](CCCCN)C(=O)N[C@H]2CSSC[C@H](NC(=O)[C@H](Cc3ccccc3)NC(=O)CNC(=O)[C@H](CCCCN)NC(=O)[C@H](Cc3ccc(O)cc3)NC2=O)C(=O)N[C@@H](Cc2ccc(O)cc2)C(=O)N[C@@H](CCCNC(=N)N)C(=O)N[C@@H](CCCCN)C(=O)N1)C(N)=O [polypeptide (13), ArgArgTrpCysTyrArgLysCysTyrLysGlyPheCysTyrArgLysCysArgNH2] (H-RRWCYRKCYKGFCYRKCR-NH2; disulfide 4-17, 8-13; N-terminus assumed) | 0.009 µg/mL (≈ 0.00364 µM) | 52 µg/mL (≈ 21 µM) | – | particularly selective | at least 7 fold
10 | N=C(N)NCCC[C@H](NC(=O)[C@@H]1CSSC[C@H](NC(=O)[C@H](Cc2c[nH]c3ccccc23)NC(=O)[C@H](CCCNC(=N)N)NC(=O)[C@@H](N)CCCNC(=N)N)C(=O)N[C@@H](Cc2ccc(O)cc2)C(=O)N[C@@H](CCCNC(=N)N)C(=O)N[C@@H](CCCCN)C(=O)N[C@H]2CSSC[C@H](NC(=O)[C@H](Cc3ccc(O)cc3)NC(=O)CNC(=O)[C@H](CCCNC(=N)N)NC(=O)[C@H](Cc3ccc(O)cc3)NC2=O)C(=O)N[C@@H](Cc2ccc(O)cc2)C(=O)N[C@@H](CCCNC(=N)N)C(=O)N[C@@H](CCCCN)C(=O)N1)C(N)=O [polypeptide (14), ArgArgTrpCysTyrArgLysCysTyrArgGlyTyrCysTyrArgLysCysArgNH2] (H-RRWCYRKCYRGYCYRKCR-NH2; disulfide 4-17, 8-13; N-terminus assumed) | 0.018 µg/mL (≈ 0.00716 µM) | 52 µg/mL (≈ 20.7 µM) | – | particularly selective | at least 7 fold
